Results as given in the OPERA property sets (Mansouri et al. 2018).
Where a SMILES comes first, the peptide text is derived from it.

Structure (SMILES) | logP
Cc1sc2ccc3c(C)cc(=O)oc3c2c1C | 3.65
CCCCCCCNC1=NS(=O)N=C1NCCSCc1ccc(CN(C)C)o1 (stereo unspecified) | 3.91
NC(Cc1ccccc1)C(=O)N1CCCC1C(=O)O (stereo not drawn) (H-Phe-Pro-OH; configuration not given here) | -1.23
CCN(CC)C(=O)COC(=O)c1cc(S(N)(=O)=O)c(Cl)cc1NCc1ccco1 | 2.45
CCN(CC)C1CCc2c(OC)cccc2C1C (stereo unspecified) | 3.47
CC(=O)NC1=C(Cl)C(=O)c2ccccc2C1=O | 1.42
CCCCCCNc1[nH]cnc2ncnc1-2 | 3.16
CCOC(=O)Nc1ccc2cc3ccc4c(c3nc2c1)COC(=O)N4 | 2
COc1ccc(S(C)(=O)=O)cc1CNC1CCCNC1c1ccccc1 (stereo unspecified) | 1.9
CCN(CC)CCNC(=O)c1c(C)cc(N)cc1C | 0.98
CC(=O)NC(CCCNC(=O)N(CCCl)N=O)C(=O)NCc1ccccc1 (stereo unspecified) | 1.33
ClCC1(C(Cl)Cl)C2C(Cl)CC1(C(Cl)Cl)C(Cl)C2Cl (stereo unspecified) | 5.19
CCN(CC)c1nc(N)nc(Cl)n1 | 2.14
CC1NCCc2c1[nH]c1ccc([N+](=O)[O-])cc21 (stereo unspecified) | 2.07
COC(=O)C(C)NP(=O)(OCC1C=CC(n2cc(C)c(=O)[nH]c2=O)O1)Oc1ccc(C#N)cc1 (stereo unspecified) | 0.91
CN(C)c1cccc2nc(N)nc(N)c12 | 1.65
O=C(c1c(O)c2ccc(Cl)cc2[nH]c1=O)C1CC1 | 2.35
O=C(Nc1ccccc1C(=O)O)c1ccccc1O | 3.94
CCOc1cccc(COC(=O)C2C(C=C(C)C)C2(C)C)c1 (stereo unspecified) | 5.87
COc1ccc(C2Cc3c(ccc(Br)c3OC)N(CCN(C)C)C(=O)C2OC(C)=O)cc1 (stereo unspecified) | 4.4
CC(C)NC(=S)NS(=O)(=O)c1cnccc1NC1CCCCCCC1 | 4.2
OCC1OC(Oc2ccc(-c3ccccc3)cc2)C(O)C(O)C1O (stereo unspecified) | 1.79
CCC(C)C(N)C(=O)N1CCCC1C(=O)NCC(=O)NC(C(=O)O)C(C)CC (stereo unspecified) (H-IPGI-OH; configuration not given here) | -1.69
O=C(OC1Cc2c(O)cc(O)cc2OC1c1ccc(O)c(O)c1)c1ccc(O)c(O)c1 (stereo unspecified) | 2.45
COc1cc2ncnc(Nc3ccc(F)cc3)c2cc1OC | 2.87

Structure (SMILES) | logP
c1cc2cc3c(cc2cn1)OCO3 | 1.75
O=c1cc(-c2c(Cl)cccc2Cl)oc2ccccc12 | 3.79
COc1ccc2c(c1)C(=O)N(CCO[N+](=O)[O-])CO2 | 2.07
Clc1cc(Cl)c2c(c1)Oc1cc(Cl)c(Cl)c(Cl)c1O2 | 6.4
CC(=O)OCCOC(=O)C(C)c1cccc(C(=O)c2ccccc2)c1 (stereo unspecified) | 3.1
COCC(O)Cn1c([N+](=O)[O-])nc(Br)c1Br (stereo unspecified) | 1.02
CC(C)CC(NC(=O)C(N)Cc1c[nH]c2ccccc12)C(=O)NC(CC(C)C)C(=O)NC(C(=O)O)C(C)C (stereo unspecified) (H-WLLV-OH; configuration not given here) | 0.23
CCC(C)C(NC(=O)C(Cc1ccccc1)NC(=O)C(CCSC)NC(=O)C(N)C(C)C)C(=O)O (stereo unspecified) (H-VMFI-OH; configuration not given here) | -0.63
Cc1nc2c3c(c(C(=O)N(C)C)cn2c1C)CCC(c1ccccc1)O3 (stereo unspecified) | 3.3
O=C(CC1CCc2cc(Br)cc3[nH]c(=O)c(=O)n1c23)Nc1ccccc1 (stereo unspecified) | 2.78
O=C1C=C(N2CCOCC2)CN1c1ccc(F)c(Cl)c1 | 2.2
CCCNC(=O)N1C(=O)N(C)CC1O (stereo unspecified) | 0.99
O=C(NCCCCCOCCCN1CCOCC1)NC12CC3CC(CC(C3)C1)C2 | 2.7
CC(C)(C)N=O | 0.91
O=c1c2c(nc3n1CCC3)CCC2 | 0.22
CCOP(=O)(OCC)C(C)(C)[N+]([O-])=Cc1cccnc1 | 0.41
CCOP(=O)(OCC)C(C)(C)[N+]([O-])=Cc1cc[n+]([O-])cc1 | -0.74
C[C@@H]1N=C(c2ccccc2Cl)c2cc([N+](=O)[O-])ccc2NC1=O | 2.72
CCOc1ccc(-n2nnnc2N)cc1 | 1.32
COc1ccc(C(=O)NN=Cc2c(CO)ccc(C)c2O)cc1 | 3.34
COc1ccc(CNCC(O)CON=C(C2CC2)C2CC2)c(OC)c1 (stereo unspecified) | 2.22
CC(C)CC(NC(=O)C(NC(=O)C(CO)NC(=O)C(CC(C)C)NC(=O)CN)C(C)C)C(=O)O (stereo unspecified) (H-GLSVL-OH; configuration not given here) | -1.64
Oc1cc(O)c2c(c1)OC(c1ccc(O)c(O)c1)C(OCCCc1ccccc1)C2 (stereo unspecified) | 3.78
OCCCCCCCCNc1ncnc2c1ncn2C1OC(CO)C(O)C1O (stereo unspecified) | 1.3
N#CNc1ccccc1 | 1.87

Structure (SMILES) | logP
COC1CC(OC2C(C)OC(OC3CCC4(C)C(CCC5C4CC(O)C4(C)C(C6=CC(=O)OC6)CCC54O)C3)CC2OC)OC(C)C1OC1CC(O)C(O)C(C)O1 (stereo unspecified) | 2.14
COc1ccc(C2Cc3cc(C(F)(F)F)ccc3N(CCN(C)C)C(=O)C2NC(C)=O)cc1 (stereo unspecified) | 3.6
CCCOc1cccc(-c2c[nH]c(SCCc3c[nH]cn3)n2)c1 | 3.7
NC(=O)C1CN(CC(=O)Nc2c(Cl)cccc2Cl)CCN1CCCC(c1ccc(F)cc1)c1ccc(F)cc1 (stereo unspecified) | 5.26
CS(=O)(=O)Nc1cccc(Cn2cnc3ccccc32)c1 | 2.08
COc1ccc(O)c(C2=NC(C(=O)O)CS2)c1 (stereo unspecified) | 1.6
NC(=O)C(CCN1CCCCC1)c1ccccc1Cl (stereo unspecified) | 2.46
O=c1[nH]c2cc(Cl)c(Cl)c([N+](=O)[O-])c2[nH]c1=O | 0.21
Clc1ccc2c(oc3c(Cl)cc(Cl)c(Cl)c32)c1Cl | 6.27
Brc1cc2ccc3cccc4ccc(c1)c2c34 | 5.8
O=c1[nH]c2cc(Cl)ccc2c(O)c1-c1cccc(Oc2ccccc2)c1 | 5.1
CC(C)CC(N)C(=O)NC(C(=O)O)C(C)C (stereo not drawn) (H-Leu-Val-OH; configuration not given here) | -2.05
CC1CN(CC2CN=C(N)O2)CC(C)O1 (stereo unspecified) | 0.16
Cc1cccc(Cc2cnc[nH]2)c1C | 2.68
Cc1oc2ccc3c(C)cc(=O)[nH]c3c2c1C | 3.18
Cc1nc2c3c(c(C(=O)N(C)C)cn2c1C)CCC(c1ccc(F)cc1)O3 (stereo unspecified) | 3.5
Nc1nc(N)c2c(S(=O)(=O)c3ccccc3)cccc2n1 | 2.14
CC(=O)OC1CCCC2(C)CCC(C(C)(C)OC(C)=O)CC12 (stereo unspecified) | 5.06
N=C(N)Nc1nc(-c2ccc(N)cc2)cs1 | 1.08
Cc1oc2cc3oc(=O)ccc3c(C)c2c1C | 3.27
Nc1cccc(Nc2ccccc2C(=O)O)c1 | 2.99
Nc1nnnn1-c1cccc(O)c1 | 0.56
CCCc1nc(Nc2ccccc2OC)nc(N2CCOCC2)n1 | 3.59
Cc1ccc(CO)c(C=NNC(=O)c2ccco2)c1O | 2.67
CCCC(=NOCC)C1=C(O)CC2(CCSCC2)OC1=O | 2.9

Structure (SMILES) | logP
NC(Cc1ccccc1)C(=O)NC(Cc1ccc(O)cc1)C(=O)O (stereo not drawn) (H-Phe-Tyr-OH; configuration not given here) | -1.68
Clc1c2ccccc2cc2ccccc12 | 5.27
COc1nc(C)nc(Cl)c1NC1=NCCN1 | 0.9
CCc1cccc(C)c1NC(=O)OC | 1.99
CC(=O)Nc1ccc(/C=C/c2n[nH]c(=O)cc2C)cc1 | 1.27
COc1ccc(C2Cc3c(OC)cccc3N(CCN(C)C)C(=O)C2OC(C)=O)cc1 (stereo unspecified) | 3.9
CCC(C)c1cnc(CC(C)C)c(=O)n1O (stereo unspecified) | 1.81
O=C(O)c1cccc(F)c1F | 1.88
COc1ccc(C2Cc3cc(C(F)(F)F)ccc3N(CCN(C)C)C(=O)C2OC(C)=O)cc1 (stereo unspecified) | 4.8
OCCNc1ncnc2nc[nH]c12 | -0.18
C[N+](C)([O-])Cc1ccccc1 | -0.57
ClCC1(CCl)C2CC(Cl)(Cl)C1(CCl)C(Cl)C2Cl (stereo unspecified) | 5.23
OCCNc1ncnc2c1ncn2C1OC(CO)C(O)C1O (stereo unspecified) | -1.13
O=C(O)CCCCON=C(c1ccccc1)c1ncccn1 | 1.94
Cc1c(O)c(=O)ccn1CCCO | -0.88
COc1cccc(OCC2CN=C(N)O2)c1 (stereo unspecified) | 1.34
CON(C)C(=O)Nc1cccc(CO)c1 | 0.62
CON=C(C(=O)NC1C(=O)N2C(C(C)OC(=O)OC3CCCCC3)=CCSC12)c1csc(N)n1 (stereo unspecified) | 2.52
Cc1nc2ccccc2c(=O)n1CC(=O)NCc1ccccc1 | 1.78
COC(=O)C(C)NP(=O)(OCC1C=CC(n2cc(C)c(=O)[nH]c2=O)O1)Oc1cccc(C(F)(F)F)c1 (stereo unspecified) | 1.57
CCC(C)C(N)C(=O)NC(Cc1ccc(O)cc1)C(=O)NC(C(=O)O)C(C)C (stereo not drawn) (H-Ile-Tyr-Val-OH; configuration not given here) | -1.77
CCCCCCOc1ccc(CC(=O)O)cc1OC | 3.3
Cc1cc(=O)oc2c1c(C)cc1occ(C)c12 | 3.04
CC(C)CC(N)C(=O)NC(CC(C)C)C(=O)N1CCCC1C(=O)NC(CC(C)C)C(=O)O (stereo unspecified) (H-LLPL-OH; configuration not given here) | -1
CC(C)CNC(=O)N1C(=O)N(C)CC1O (stereo unspecified) | 1.32

Structure (SMILES) | logP
O=C(C=Cc1ccc([N+](=O)[O-])o1)NN=Cc1ccc([N+](=O)[O-])o1 | 2.79
NC(=S)NN=C(c1cccc([N+](=O)[O-])c1)c1ccccn1 | 1.9
CCOc1cccc(NC(=O)OCCN2CCCCC2)c1 | 3.77
COc1ccc(C2Cc3cc(OC)ccc3N(CCN(C)C)C(=O)C2OC(C)=O)cc1 (stereo unspecified) | 3.2
Cc1cc2c(o1)c(C)cc1c(C)cc(=O)n(C)c12 | 3.43
Brc1ccc2ccc3ccc(Br)c4ccc1c2c34 | 6.73
Nc1nnnn1-c1cccc(F)c1 | 0.91
O=C1c2ccccc2-c2nnccc21 | 1.22
NC(Cc1c[nH]c2ccccc12)C(=O)NC(Cc1ccc(O)cc1)C(=O)O (stereo unspecified) | -1.13
O=C(O)Cc1ccccc1Nc1cc(Cl)cc(Cl)c1 | 5.07
COc1ccc(O)c(C2=NC(C)(C(=O)O)CS2)c1 (stereo unspecified) | 1.8
c1ccc2c(c1)OCC(C1=NCCN1)O2 (stereo unspecified) | 1.63
CCCC(=NOCC)C1=C(O)CC2(CCCC2)OC1=O | 3.22
CCOCCOCCOCCCCCNC(=O)NC12CC3CC(CC(C3)C1)C2 | 3.6
c1ccc(N2CCN(CCCOn3nnc4ccccc43)CC2)cc1 | 3.49
O=[N+]([O-])c1cn(Cc2ccccc2)cn1 | 1.36
CN1CC(O)N(C(=O)NC(C)(C)C)C1=O (stereo unspecified) | 1.38
Cc1ccc(Br)cc1F | 3.64
O=C1c2ccccc2-c2nnc(-c3ccccc3O)cc21 | 3.15
NC1=NCC(CN2CCC(c3ccccc3)CC2)O1 (stereo unspecified) | 1.96
CCCCN1CCCC1CNC(=O)c1cc(S(N)(=O)=O)cc2c1OC(C)C2 (stereo unspecified) | 2.8
